This passage reports IC50 results from patent US9346780B2, “Process for producing dihydro-2H-pyran derivatives” (OKINAWA INSTITUTE OF SCIENCE AND TECHNOLOGY SCHOOL …, priority 2012, dated 2016).

This data set is described as follows: Cytotoxicity, K562 cell growth inhibition (Cell Counting Kit-8 / WST-8). The format is cell-based. The note with it: human; K562 cells; 6-48 hrs incubation; WST-8 absorbance at 450 nm; concentration inhibiting the cell growth by 50%. On the procedure:
K562 cells (American Type Culture Collection) were cultured in a culture medium containing 10% (v/v) fetal calf serum (FCS) (manufactures by Sigma) to logarithmic phase. The cells were seeded in 96-well microtiter plate at a density of 5000 cells/well in 100 μL cell culture medium and incubated at 37° C. and 5% CO2 in a humidified incubator overnight. The test compounds of various concentrations were added in a well at 10 fold concentration in 1/10 volume of medium without FCS. After 6-48 hrs incubation at 37° C. in the CO2 incubator, 10 μL solution of the viable cell counting reagent, Cell counting Kit-8 (5 mmol/L WST-8, 0.2 mmol/L 1-Methoxy PMS, 150 mmol/L NaCl) (manufactured by Dojindo) was added to each well, and reacted for 1 to 4 hours in the CO2 incubator. After the incubation, an absorbance of formazan, generated by reduction of WST-8 was determined at 450 nm using a microplate reader.
The assay readout is correlated with the viable cell numbers. Small values correspond to high inhibition and larger values to low inhibition of the cell growth. To determine IC50 values (i.e. the concentration inhibiting the cell growth by 50%) of the compounds of formula II, IV and V, several assays were made with a range of concentrations chosen empirically to give low, high and intermediate inhibition of the growth and determined using the curve fitting software.
IC50 values can be converted logarithmically to pIC50 values (−log IC50), in which higher values indicate exponentially greater potency. The IC50 value is not an absolute value but depends on experimental conditions e.g. concentrations employed.
(In general: Tetrazolium assays rely on reduction of a dye to a coloured formazan, in cell work by metabolically active cells.)
Regarding `O=C(OCc1ccccc1)C1=CC(c2ccccc2)CC(O)(C(=O)OCc2ccccc2)O1` (stereo not drawn), the IC50 is 149 µM.

Compound `CCOC(=O)C1=CC(C2CCCCC2)CC(O)(C(=O)OCC)O1` (stereo not drawn) yielded an IC50 of 58 µM. `CCOC(=O)C1=CC(c2ccc(Br)cc2)CC(O)(C(=O)OCC)O1` (stereo not drawn) displayed a half-maximal inhibitory concentration (IC50) of 80 µM. As for `COC(=O)C1=CC(c2ccc([N+](=O)[O-])cc2)CC(O)(C(=O)OCc2ccccc2)O1` (stereo not drawn), it took 81 µM to reach half-maximal inhibition (IC50). This IC50 and that of the compound before are within 1.5-fold of each other. `CCOC(=O)C1=CC(c2ccc([N+](=O)[O-])cc2)CC(Nc2ccc(OC)cc2)(C(=O)OCC)O1` (stereo not drawn) gave an IC50 of 12 µM. As for `CCOC(=O)C1=CC(c2ccc([N+](=O)[O-])cc2)CC(F)(C(=O)OCC)O1` (stereo not drawn), 11 µM corresponded to half-maximal inhibition (IC50). For the compound `CCOC(=O)C1=CC(c2ccc(Cl)cc2)CC(F)(C(=O)OCC)O1` (stereo not drawn), 52 µM corresponded to half-maximal inhibition (IC50). On to `CCOC(=O)C1=CC(c2ccc(Br)cc2)CC(F)(C(=O)OCC)O1` (stereo not drawn), for which the IC50 is 53 µM. On to `CCOC(=O)C1=CC(c2ccco2)CC(F)(C(=O)OCC)O1` (stereo not drawn), for which the IC50 is 135 µM. The value for `CCOC(=O)C1=CC(c2ccc([N+](=O)[O-])cc2)CC(C(=O)OCC)=NN1` (stereo not drawn) was 148 µM; that for `O=C(OCc1ccccc1)[C@]1(O)C[C@H](c2ccccc2)C[C@](O)(C(=O)OCc2ccccc2)[C@H]1[N+](=O)[O-]` was 54 µM. `COC(=O)[C@@]1(O)C[C@@H](c2ccc([N+](=O)[O-])cc2)C[C@@](O)(C(=O)OCc2ccccc2)[C@@H]1[N+](=O)[O-]` registered an IC50 of 90 µM. Compared with the last compound, the IC50 is about 1.7-fold higher.

The compound `CCOC(=O)[C@]1(O)C[C@H](c2ccc(C(F)(F)F)cc2)C[C@](O)(C(=O)OCC)[C@H]1[N+](=O)[O-]` gave a concentration for half-maximal inhibition (IC50) of 144 µM. Take `CCOC(=O)[C@]1(O)C[C@H](c2ccc(Br)cc2)C[C@](O)(C(=O)OCC)[C@H]1[N+](=O)[O-]`: it took 144 µM to reach half-maximal inhibition (IC50). In the case of `CCOC(=O)[C@]1(O)C[C@H](C2CCCCC2)C[C@](O)(C(=O)OCC)[C@H]1[N+](=O)[O-]`, it took 105 µM to reach half-maximal inhibition (IC50).

For orientation: IC50 means the concentration that inhibits the measured activity by half. A low value points to greater potency.
